Tests used:
Format in all cases: cell-based
[1] = test system: Aspergillus niger ATCC 16404; experiment: Minimum Inhibitory Concentration (MIC) test, tube dilution, static and cidal; details: A. niger
Description: (§1) The measurement of the lowest effective concentration of an anti-microbial or anti-microbial blend is important for recommending use concentrations. The MIC test is an in vitro tube dilution procedure used to identify effective concentrations of anti-microbials. In this test, the experimental compound is diluted by serial concentrations into nutrient culture media. Test organisms are then inoculated into the anti-microbial solutions.
(§2) If the experimental compound is effective, there is no growth observed in the test dilution tubes and they are clear. If the experimental compound is not effective, the test dilution tubes are cloudy, indicating growth. This test will determine static as well as cidal activity concentrations.
(§3) • 1. Laminar flow hood (Baker Sterilgard SG 400) • 2. 18×150 mm culture tubes • 3. Stock antimicrobial solution • 4. Media: Trypticase soy broth (BBL 11043) and AOAC Letheen broth (BBL 10914) • 5. Test organisms: Staphylococcus aureus ATCC 6538, Escherichia coli ATCC 8739, Pseudomonas aeruginosa ATCC 9027, Burkholderia cepacia ATCC 25416, Candida albicans ATCC 10231, and Aspergillus niger ATCC 16404. • 6. Spectrophotometer (Spectronic 20D, Milton Roy)
(§4) • 1. Antimicrobial stock solutions are prepared at predetermined concentrations (i.e., 10% through 0.07%) depending on the test material. Serial doubling dilutions are made as follows. Each culture tube contains 5 mls of trypticase soy broth. Five mls of the stock solution are added to the first tube and vortexed. 5 mls are then removed and placed into the second tube, (and so on, until the last tube). At the final test concentration, 5 mls of the broth/antimicrobial mixture is decanted out. • 2. The test organisms are prepared as with any organism inoculum (MLM 100-3, MLM 100-4, and MLM 100-5). A saline suspension of each organism is prepared. The bacterial organisms and the yeast are a standardized at a concentration of 1×10^6 cfu/ml. The mold inoculum is approximately 1×10^5 cfu/ml. • 3. Inoculate each culture tube with 0.10 mls of organism inoculum and vortex. • 4. Incubate bacterial tubes for 24 hours at 35° C. Incubate yeast or mold tubes for 48 hours at 25° C. Read for growth; turbid tubes for bacteria and yeast; mold clearly visible tubes. This is the minimum inhibitory concentration (static activity). • 5. After the tubes are read, transfer all “clear” tubes and the first cloudy (growth) tube into Letheen broth containing neutralizers. Incubate the Letheen broth tubes for 48 hours at the bacterial or fungal incubation temperatures. Read for growth; turbid tubes for bacteria and yeast; mold clearly visible in mold tubes. This is the cidal activity concentration. Discussion
(§5) The cidal activity of an anti-microbial can be rapidly screened by means of a MIC test before further evaluation tests, such as longer preservative efficacy tests, are performed. This test is a tube serial dilution procedure limited only by the water solubility of the material. Where anti-microbial materials are slightly insoluble, leaving the TSB broth turbid, a procedure modification can be made. Tubes are incubated for 24 hours (bacteria) or 48 hours (fungi) but instead of transfer to Letheen broth, the TSB tubes are streaked onto Letheen agar. The agar plates are then incubated appropriately and then read for absence or presence of growth. Depending on the degree of insolubility, a measure of cidal activity may be the only parameter measured.
(§6) Anti-microbial neutralization is important in this screening test. […] These are to be determined prior to testing.

[2] = test system: Burkholderia cepacia ATCC 25416; experiment: as above; details: B. cepacia
Description: as §1, §2, §3, §4, §5, §6

[3] = test system: Candida albicans ATCC 10231; experiment: as above; details: C. albicans
Description: as §1, §2, §3, §4, §5, §6

[4] = test system: Escherichia coli ATCC 8739; experiment: as above; details: E. coli
Description: as §1, §2, §3, §4, §5, §6

[5] = test system: Pseudomonas aeruginosa ATCC 9027; experiment: as above; details: P. aeruginosa
Description: as §1, §2, §3, §4, §5, §6

[6] = test system: Staphylococcus aureus ATCC 6538; experiment: as above; details: Staph aureus
Description: as §1, §2, §3, §4, §5, §6

[7] = test system: AN (Aspergillus niger); experiment: Preservative challenge test, nonionic emulsion
Description: (§7) A typical cosmetic emulsion was prepared for microbiological challenge testing and predetermined admixtures of a methylol compound and IPBC were added at various use levels. The emulsion thus prepared had the following composition:
(§8) The challenge tests were carried out using the following microorganisms: SA, ECOLI, PSA, PC, AN and CAN, in this manner. 50 g aliquots of the test emulsion containing various amounts of the preservative admixture were inoculated with approximately 10^7–10^8 of the challenge organisms. The test samples then were stirred to disperse the challenge inoculum. The samples were incubated and assayed at 48 hours, 7, 14, 21 and 28 days. The assays were performed on 1 g of the test sample by serially diluting 10^1 to 10^6 of the original concentration. The plating medium for bacteria was Letheen agar and for fungi it was low pH Mycophil agar with Tween 20. Each plated sample was incubated for 48 hours at 37° C. for bacteria, 5 days at 25° C. for mold, and 3 days at 25° C. for fungi. After incubation, readings of the number of colonies per milliliter (cfu/ml) were made. At 21 days the test product was reinoculated with half of the original inoculum.

[8] = test system: CAN (Candida albicans); experiment: Preservative challenge test, nonionic emulsion
Description: as §7, §8

[9] = test system: PSA (Pseudomonas aeruginosa); experiment: Preservative challenge test, nonionic emulsion
Description: as §7, §8

[10] = test system: SA (Staphylococcus aureus); experiment: Preservative challenge test, nonionic emulsion
Description: as §7, §8

For `O=C1C(N(CO)C(=O)NCO)N(CO)C(=O)N1CO` (stereo not shown) [Germall II], the “CIDAL (cidal activity concentration)” value [1] was 2500 ppm, the “STATIC (minimum inhibitory concentration)” value [1] was 2500 ppm and the “CIDAL (cidal activity concentration)” value [2] was 600 ppm. For the same compound, the “STATIC (minimum inhibitory concentration)” value [2] was 150 ppm, the “CIDAL (cidal activity concentration)” value [3] was >5000 ppm and the “STATIC (minimum inhibitory concentration)” value [3] was 5000 ppm. For the same compound, the “CIDAL (cidal activity concentration)” value [4] was 1250 ppm, the “STATIC (minimum inhibitory concentration)” value [4] was 600 ppm and the “CIDAL (cidal activity concentration)” value [5] was 1250 ppm. For the same compound, the “STATIC (minimum inhibitory concentration)” value [5] was 600 ppm, the “CIDAL (cidal activity concentration)” value [6] was 1250 ppm and the “STATIC (minimum inhibitory concentration)” value [6] was 300 ppm. The “cfu/ml, 48 hrs” value ([7]; 2000 ppm) was <10 cfu/ml, the “cfu/ml, 7 days” value ([7]; 2000 ppm) was <10 cfu/ml and the “cfu/ml, 14 days” value ([7]; 2000 ppm) was <10 cfu/ml. For the same compound, the “cfu/ml, 21 days” value ([7]; 2000 ppm) was <10 cfu/ml, the “cfu/ml, 28 days” value ([7]; 2000 ppm) was <10 cfu/ml and the “cfu/ml, 48 hrs” value ([7]; 4000 ppm) was <10 cfu/ml. The “cfu/ml, 7 days” value ([7]; 4000 ppm) was <10 cfu/ml, the “cfu/ml, 14 days” value ([7]; 4000 ppm) was <10 cfu/ml and the “cfu/ml, 21 days” value ([7]; 4000 ppm) was <10 cfu/ml. For the same compound, the “cfu/ml, 28 days” value ([7]; 4000 ppm) was <10 cfu/ml, the “cfu/ml, 48 hrs” value ([8]; 2000 ppm) was 320,000 cfu/ml and the “cfu/ml, 7 days” value ([8]; 2000 ppm) was 720,000 cfu/ml. For the same compound, the “cfu/ml, 14 days” value ([8]; 2000 ppm) was 650,000 cfu/ml, the “cfu/ml, 21 days” value ([8]; 2000 ppm) was 730,000 cfu/ml and the “cfu/ml, 28 days” value ([8]; 2000 ppm) was >1E6 cfu/ml. For the same compound, the “cfu/ml, 48 hrs” value ([8]; 4000 ppm) was 50 cfu/ml, the “cfu/ml, 7 days” value ([8]; 4000 ppm) was 10,000 cfu/ml and the “cfu/ml, 14 days” value ([8]; 4000 ppm) was 620,000 cfu/ml. For the same compound, the “cfu/ml, 21 days” value ([8]; 4000 ppm) was 460,000 cfu/ml, the “cfu/ml, 28 days” value ([8]; 4000 ppm) was >1E6 cfu/ml and the “cfu/ml, 48 hrs” value ([9]; 2000 ppm) was <10 cfu/ml. For the same compound, the “cfu/ml, 7 days” value ([9]; 2000 ppm) was <10 cfu/ml, the “cfu/ml, 14 days” value ([9]; 2000 ppm) was <10 cfu/ml and the “cfu/ml, 21 days” value ([9]; 2000 ppm) was <10 cfu/ml. The “cfu/ml, 28 days” value ([9]; 2000 ppm) was <10 cfu/ml, the “cfu/ml, 48 hrs” value ([9]; 4000 ppm) was <10 cfu/ml and the “cfu/ml, 7 days” value ([9]; 4000 ppm) was <10 cfu/ml. The “cfu/ml, 14 days” value ([9]; 4000 ppm) was <10 cfu/ml, the “cfu/ml, 21 days” value ([9]; 4000 ppm) was <10 cfu/ml and the “cfu/ml, 28 days” value ([9]; 4000 ppm) was <10 cfu/ml. The “cfu/ml, 48 hrs” value ([10]; 2000 ppm) was <10 cfu/ml, the “cfu/ml, 7 days” value ([10]; 2000 ppm) was <10 cfu/ml and the “cfu/ml, 14 days” value ([10]; 2000 ppm) was <10 cfu/ml. The “cfu/ml, 21 days” value ([10]; 2000 ppm) was <10 cfu/ml, the “cfu/ml, 28 days” value ([10]; 2000 ppm) was <10 cfu/ml and the “cfu/ml, 48 hrs” value ([10]; 4000 ppm) was <10 cfu/ml. The “cfu/ml, 7 days” value ([10]; 4000 ppm) was <10 cfu/ml, the “cfu/ml, 14 days” value ([10]; 4000 ppm) was <10 cfu/ml and the “cfu/ml, 21 days” value ([10]; 4000 ppm) was <10 cfu/ml. For the same compound, the “cfu/ml, 28 days” value ([10]; 4000 ppm) was <10 cfu/ml.
